Results: US5276058A, “3,4-dihydroxychalcone derivatives” (Nippon Hypox Laboratories Incorporated, priority 1993, dated 1994)

What was measured:
[1] = tested on: ear swelling induced by arachidonic acid; assay: topical anti-inflammatory activity test (arachidonic acid-induced ear swelling); format: in vivo, male ICR mice; settings: Mus musculus, 1 hour before 1 mg arachidonic acid, read-out: Ratio of inhibition of ear swelling induced by arachidonic acid; for inhibition in vivo at 30 µg/ear: 30 μg/ear; for inhibition in vivo at 10 µg/ear: 10 μg/ear; for inhibition in vivo at 100 µg/ear: 100 μg/ear
Method: The 3,4-dihydroxychalcone derivatives shown in Table 9, as test compounds, were subjected to the following topical anti-inflammatory activity test.
Acetone solutions were prepared from the test compounds. Then, the acetone solution were applied to the right ears of male ICR mice such that the dose of each test compound was 10 μg/ear, 30 μg/ear of 100 μg/ear. One hour after the application, 1 mg of arachidonic acid was applied to each right ear to cause ear swelling.
One hour after the application of the arachidonic acid, the mice were sacrificed by vertebral cervical dislocation, and the right and left ears were taken and separately weighed. The weight of the right ear to which the arachidonic acid had been applied was divided by the weight of the non-treated left ear to obtain a swelling ratio.
The effect of each test compound was shown in the following manner. The relative values of the swelling ratios of individual mice were calculated on an assumption that the average value of the swelling ratios of the solvent control group was taken as 100, and amounts of their decreases were expressed by percentages (inhibition ratios).

cyclooxygenase = target: T1, cyclooxygenase (Ovis aries, UniProt P05979); assay: cyclooxygenase inhibiting activity test; format: biochemical; settings: sheep seminal vesicle, pH 7.4, prostaglandin E2 formation
T1 construct: containing sheep seminal vesicle; from tissue; host or cells: sheep seminal vesicle
T1 sequence (P05979 25-600): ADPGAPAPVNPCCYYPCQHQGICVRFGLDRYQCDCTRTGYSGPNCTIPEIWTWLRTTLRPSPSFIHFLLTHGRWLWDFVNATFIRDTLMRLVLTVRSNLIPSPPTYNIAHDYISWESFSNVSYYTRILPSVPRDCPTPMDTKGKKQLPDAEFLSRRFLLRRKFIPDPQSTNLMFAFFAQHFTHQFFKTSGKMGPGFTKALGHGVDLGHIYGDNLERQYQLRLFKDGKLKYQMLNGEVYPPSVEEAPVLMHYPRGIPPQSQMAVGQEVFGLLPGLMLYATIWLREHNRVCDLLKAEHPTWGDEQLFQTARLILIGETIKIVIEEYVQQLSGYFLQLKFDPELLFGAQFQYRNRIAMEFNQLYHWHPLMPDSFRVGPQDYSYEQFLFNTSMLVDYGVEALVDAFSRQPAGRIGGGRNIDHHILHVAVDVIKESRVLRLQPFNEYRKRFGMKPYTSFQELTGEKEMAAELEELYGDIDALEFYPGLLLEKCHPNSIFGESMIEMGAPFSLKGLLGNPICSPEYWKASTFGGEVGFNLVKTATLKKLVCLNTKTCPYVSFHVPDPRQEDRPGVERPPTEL
Method: A 50 mM phosphoric acid buffer solution (pH 7.4) containing sheep seminal vesicle, 2 mM of glutathione, 0.6 mM of epinephrine and 80 μM of EDTA-2Na preheated at 37° C. for 2 minutes, and then ^14 C-arachidonic acid was added to the reaction mixture. The mixture was heated for 10 minutes to form prostaglandin E2, and the radiation activity of the formed prostaglandin E2 was taken as cyclooxygenase activity. The 3,4-dihydroxychalcone derivatives shown in Table 10 were selected as test compounds. The cyclooxygenase inhibiting activity of each test compound was evaluated as follows. Each test compound was independently added to the above phosphoric acid buffer solution, and the radiation activity of the formed prostaglandin E2 was measured in the same manner as above. The inhibition ratio of each test compound was determined in comparison with that of the control group, and the value of IC50 was calculated by a conventional method.

[2] = JP,A 61-76433; cited from earlier work
[3] = JP,A 63-297847; cited from earlier work
[4] = tested on: enzymes which are to cause inflammation; settings: in vitro; PROSTAGLADINSS (1985, 30 (3) 357); cited from earlier work
[5] = Food Chemistry (1983, 12) 205-212; cited from earlier work
5-lipoxygenase = target: T2, 5-lipoxygenase (Rattus norvegicus, UniProt P12527); assay: 5-lipoxygenase inhibiting activity test (RBL-1 cell homogenate); format: biochemical; settings: pH 7.4, 37° C., 5-HETE formation
T2 construct: endogenous in cells; host or cells: RBL-1 cell homogenate
T2 sequence (P12527 1-673): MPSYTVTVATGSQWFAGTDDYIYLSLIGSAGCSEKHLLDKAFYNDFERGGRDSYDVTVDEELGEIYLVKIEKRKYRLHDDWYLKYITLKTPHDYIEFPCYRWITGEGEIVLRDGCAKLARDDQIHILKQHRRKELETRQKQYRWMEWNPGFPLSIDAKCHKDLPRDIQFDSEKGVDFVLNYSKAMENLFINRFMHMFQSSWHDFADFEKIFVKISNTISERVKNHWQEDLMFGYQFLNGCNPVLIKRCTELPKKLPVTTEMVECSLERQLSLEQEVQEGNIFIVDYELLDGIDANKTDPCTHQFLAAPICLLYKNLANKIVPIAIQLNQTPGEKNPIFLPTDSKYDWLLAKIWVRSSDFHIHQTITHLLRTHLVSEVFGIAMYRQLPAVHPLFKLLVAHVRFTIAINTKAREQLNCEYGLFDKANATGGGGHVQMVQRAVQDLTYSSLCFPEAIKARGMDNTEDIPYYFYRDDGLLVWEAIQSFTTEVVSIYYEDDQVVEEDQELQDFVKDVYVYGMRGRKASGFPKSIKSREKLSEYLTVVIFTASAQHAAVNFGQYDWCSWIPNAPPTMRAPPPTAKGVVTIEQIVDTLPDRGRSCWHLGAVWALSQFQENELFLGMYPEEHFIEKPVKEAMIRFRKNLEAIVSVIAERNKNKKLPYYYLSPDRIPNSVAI
Method: RBL-1 cell homogenate was suspended in a 50 mM phosphoric acid buffer solution (pH 7.4) containing 2 mM of CaCl2, 0.25 mM of sucrose, 1 mM of EDTA-2Na and glutathione, and the mixture was heated to 37° C. Arachidonic acid was added to the mixture to form 5-HETE (5-hydroxyeicosatetraenonic acid), and the 5-HETE was measured for an amount by a high-performance liquid chromatography.
The 3,4-dihydroxychalcone derivatives shown in Table 11 were selected as test compounds. The 5-lipoxygenase inhibiting activity of each test compound was evaluated as follows. Each test compound was independently added to the above phosphoric acid buffer solution, and the 5-HETE amount was measured in the same manner as above. The inhibition ratio of each test compound was determined in comparison with that of the control group, and the value of IC50 was calculated by a conventional method.

COc1ccc(C(=O)C=Cc2ccc(O)c(O)c2)c(OC)c1 [Example 2]
inhibition in vivo at 30 µg/ear [1]: 56% | IC50 (cyclooxygenase): 156 µM

CCOc1ccc(OCC)c(C(=O)C=Cc2ccc(O)c(O)c2)c1 [Example 16]
inhibition in vivo at 10 µg/ear [1]: 7% | IC50 (cyclooxygenase): 24.4 µM

Cc1cc(C)c(C(=O)C=Cc2ccc(O)c(O)c2)c(C)c1 [Example 27]
inhibition in vivo at 30 µg/ear [1]: 47% | IC50 (cyclooxygenase): 275 µM

COc1ccc(C(=O)C=Cc2ccc(O)c(O)c2)cc1OC [Example 29]
inhibition in vivo at 30 µg/ear [1]: 38% | IC50 (cyclooxygenase): 829 µM

COc1cccc(OC)c1C(=O)C=Cc1ccc(O)c(O)c1 [Example 12]
inhibition in vivo at 30 µg/ear [1]: 8%

COc1ccc(O)c(C(=O)C=Cc2ccc(O)c(O)c2)c1 [Example 6]
inhibition in vivo at 10 µg/ear [1]: 7.6% | inhibition in vivo at 30 µg/ear [1]: 38% | inhibition in vivo at 100 µg/ear [1]: 43% | IC50 (cyclooxygenase): 41.3 µM

COc1ccc(C(=O)C=Cc2ccc(O)c(O)c2)c(OC)c1OC [3-(3,4-dihydroxyphenyl)-1-(2,3,4-trimethoxyphenyl)-2-propen-1-one]
antiallergic activity [2]: antiallergic activity

Cc1cccc(C(=O)C=Cc2ccc(O)c(O)c2)c1 [Example 17]
inhibition in vivo at 30 µg/ear [1]: 28% | inhibition in vivo at 100 µg/ear [1]: 38% | IC50 (cyclooxygenase): 71 µM

CCOc1ccc(OC)cc1C(=O)C=Cc1ccc(O)c(O)c1 [Example 15]
inhibition in vivo at 30 µg/ear [1]: 7.4% | IC50 (cyclooxygenase): 3.2 µM

O=C(/C=C/c1ccc(O)c(O)c1)c1cccc(O)c1O [2',3',3,4-tetrahydroxychalcone]
anti-inflammatory activity [3]: extensive anti-inflammatory activity

O=C(/C=C/c1ccc(O)c(O)c1)c1ccc(O)cc1O [2',4',3,4-tetrahydroxychalcone]
inhibiting activity against enzymes which are to cause inflammation [4]: inhibiting activity against enzymes which are to cause inflammation

COc1cc(C(=O)C=Cc2ccc(O)c(O)c2)ccc1O [Example 28]
inhibition in vivo at 30 µg/ear [1]: 47%

CC(C)c1ccc(O)c(C(=O)C=Cc2ccc(O)c(O)c2)c1 [Example 7]
inhibition in vivo at 30 µg/ear [1]: 9% | IC50 (cyclooxygenase): 37.3 µM

CCCCOc1ccc(O)c(C(=O)C=Cc2ccc(O)c(O)c2)c1 [Example 9]
inhibition in vivo at 30 µg/ear [1]: 31%

O=C(/C=C/c1ccc(O)c(O)c1)c1ccccc1O [2',3,4-trihydroxychalcone]
inhibiting activity against enzymes which are to cause inflammation [4]: inhibiting activity against enzymes which are to cause inflammation

O=C(/C=C/c1ccc(O)c(O)c1)c1ccccc1 [3,4-dihydroxychalcone]
activity to inhibit the oxidation of edible oils [5]: activity to inhibit the oxidation of edible oils | inhibiting activity against enzymes which are to cause inflammation [4]: inhibiting activity against enzymes which are to cause inflammation

CN(C)c1cccc(C(=O)C=Cc2ccc(O)c(O)c2)c1 [Example 23]
inhibition in vivo at 30 µg/ear [1]: 19% | IC50 (cyclooxygenase): 40.6 µM

CC(C)Oc1ccc(O)c(C(=O)C=Cc2ccc(O)c(O)c2)c1 [Example 8]
inhibition in vivo at 30 µg/ear [1]: 67%

COc1ccc(C)cc1C(=O)C=Cc1ccc(O)c(O)c1 [Example 11]
inhibition in vivo at 30 µg/ear [1]: 32% | IC50 (cyclooxygenase): 29.7 µM

O=C(C=Cc1ccc(O)c(O)c1)c1cc(O)ccc1O [Example 3]
inhibition in vivo at 30 µg/ear [1]: 39% | IC50 (cyclooxygenase): 169 µM

COc1cc(C(=O)C=Cc2ccc(O)c(O)c2)cc(OC)c1OC [Example 30]
inhibition in vivo at 30 µg/ear [1]: 65%

CC(C)Oc1ccc(C(=O)C=Cc2ccc(O)c(O)c2)cc1 [Example 22]
inhibition in vivo at 30 µg/ear [1]: 5%

Cc1ccc(O)c(C(=O)C=Cc2ccc(O)c(O)c2)c1 [Example 5]
inhibition in vivo at 10 µg/ear [1]: 31% | inhibition in vivo at 30 µg/ear [1]: 52% | IC50 (cyclooxygenase): 121 µM

COc1ccc(C(=O)C=Cc2ccc(O)c(O)c2)cc1 [Example 21]
inhibition in vivo at 10 µg/ear [1]: 45% | IC50 (cyclooxygenase): 488 µM

Cc1ccc(C(=O)C=Cc2ccc(O)c(O)c2)c(C)c1 [Example 25]
inhibition in vivo at 30 µg/ear [1]: 43% | IC50 (cyclooxygenase): 40.5 µM

COc1ccc(C(=O)C=Cc2ccc(O)c(O)c2)c(O)c1 [Example 4]
inhibition in vivo at 30 µg/ear [1]: 35% | IC50 (cyclooxygenase): 64.8 µM

COc1cccc(C(=O)C=Cc2ccc(O)c(O)c2)c1 [Example 20]
inhibition in vivo at 30 µg/ear [1]: 58% | IC50 (cyclooxygenase): 15.1 µM

Cc1ccc(C)c(C(=O)C=Cc2ccc(O)c(O)c2)c1 [Example 26]
inhibition in vivo at 30 µg/ear [1]: 58% | IC50 (cyclooxygenase): 43.7 µM

CN(C)c1ccc(C(=O)C=Cc2ccc(O)c(O)c2)cc1 [Example 24]
inhibition in vivo at 30 µg/ear [1]: 21% | IC50 (cyclooxygenase): 808 µM

Cc1ccc(C(=O)C=Cc2ccc(O)c(O)c2)cc1 [Example 18]
inhibition in vivo at 30 µg/ear [1]: 27% | IC50 (cyclooxygenase): 210 µM

O=C(/C=C/c1ccc(O)c(O)c1)c1ccc(O)cc1 [4',3,4-trihydroxychalcone]
inhibiting activity against enzymes which are to cause inflammation [4]: inhibiting activity against enzymes which are to cause inflammation

COc1ccccc1C(=O)C=Cc1ccc(O)c(O)c1 [Example 19]
inhibition in vivo at 30 µg/ear [1]: 42% | IC50 (cyclooxygenase): 35.3 µM

COc1ccc(OC(C)C)cc1C(=O)C=Cc1ccc(O)c(O)c1 [Example 14]
inhibition in vivo at 30 µg/ear [1]: 33% | IC50 (cyclooxygenase): 59.9 µM

CCOc1ccc(O)c(C(=O)C=Cc2ccc(O)c(O)c2)c1 [Example 10]
inhibition in vivo at 30 µg/ear [1]: 43% | IC50 (cyclooxygenase): 129 µM

COc1ccc(OC)c(C(=O)/C=C/c2ccc(O)c(O)c2)c1 [Example 1, 2',5'-dimethoxy-3,4-dihydroxychalcone]
inhibition in vivo at 30 µg/ear [1]: 77% | IC50 (cyclooxygenase): 17.1 µM | IC50 (5-lipoxygenase): 0.0078 µM

CCOc1ccc(OC)c(C(=O)C=Cc2ccc(O)c(O)c2)c1 [Example 13]
inhibition in vivo at 30 µg/ear [1]: 13% | IC50 (cyclooxygenase): 26 µM
